Key:
[1] = system: in vitro-translated complex of the M. persicae EcR and USP polypeptides; experiment: Tritiated ponasterone A filter binding assay with in vitro-translated polypeptides; set-up: species or system Myzus persicae; details: tritiated ponasterone A 2.2 nM, 90 min, room temperature; complex versus USP or EcR polypeptide alone (FIG. 4)
Description: In vitro-translated Myzus persicae EcR (MpEcR) polypeptide and an in vitro-translated M. persicae USP (MpUSP) polypeptide were produced labelled with [^35S]Methionine, using the Promega TNT-Coupled Reticulocyte Lysate System. Each batch of lysate contained 100-200 mg/ml of endogenous proteins (using BSA as a standard). The products were analysed by SDS-PAGE and radioautography. The results confirmed that the cloned cDNAs encode proteins of the sizes predicted from the length of putative open reading frames of the cDNAs present in plasmids pMpEcR and pMPUSP. The yields of EcR and USP were similar as assessed by SDS-PAGE.
In functional assays, DNA plasmids pMpEcR (AGAL Accession No. NM99/04567; […]) or pMpUSP (AGAL Accession No. NM99/04568; […]), which have been constructed using the vector pBK-CMV, and […] of appropriate TNT RNA Polymerase were added to […] of reaction mix which contained TNT Lysate, TNT Reaction Buffer, amino acid mixture, Rnasin Ribonuclease Inhibitor and nuclease-free water in volumes specified in the manufactureFS protocol. […]
After thawing the translation products, […] aliquots of the reaction mixture containing M. persicae EcR and USP polypeptides were combined to promote formation of the EcR/USP complex. […] The receptor bound ligand was quantified using a TriCarb 2100TR scintillation counter.

[2] = target: T1, linker and ligand-binding regions of the L. cuprina EcR polypeptide and partner protein (USP polypeptide) (Lucilia cuprina, UniProt O18531); experiment: [3H]ponasterone A binding assay in Sf9 and Sf21 cells infected by recombinant baculovirus (modified method of Yund et al); details: compared to the ecdysone holoreceptor in L. cuprina embryos; no specific binding with control virus (FIG. 3)
T1 construct: made in house; host or cells: recombinant baculovirus in insect Sf9 and Sf21 cells (extracts)
T1 sequence (O18531 366-757): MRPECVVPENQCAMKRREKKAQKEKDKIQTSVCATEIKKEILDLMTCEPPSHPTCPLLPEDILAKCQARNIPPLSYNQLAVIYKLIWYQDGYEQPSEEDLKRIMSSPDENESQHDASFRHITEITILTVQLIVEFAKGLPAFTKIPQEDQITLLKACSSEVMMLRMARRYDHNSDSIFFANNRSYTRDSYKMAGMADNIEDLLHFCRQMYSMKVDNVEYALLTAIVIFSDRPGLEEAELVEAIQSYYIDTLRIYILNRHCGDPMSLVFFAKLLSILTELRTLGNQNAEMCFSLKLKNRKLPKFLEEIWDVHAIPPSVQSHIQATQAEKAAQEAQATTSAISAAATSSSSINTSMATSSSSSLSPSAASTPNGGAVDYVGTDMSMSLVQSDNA
Description: Control cells contained baculovirus expressing β-galactosidase and CAT only.
The segment of pLcEcR.USP.DUAL which encodes the tagged linker and ligand-binding regions of the EcR polypeptide and partner protein (USP polypeptide) sequences, placed operably under the control of polyhedrin and p10 promoters, respectively, was recombined into a baculovirus genome, by employing the Tn7 transposition system (Luckow et al, (1993). The polypeptide products were then co-expressed in insect Sf21 and Sf9 cells, where they associated into a functional complex.

CC(C)CC[C@@H](O)[C@](C)(O)[C@H]1CC[C@@]2(O)C3=CC(=O)[C@@H]4C[C@@H](O)[C@@H](O)C[C@]4(C)[C@H]3CC[C@]12C [PNA, ponasterone A]
amount of ligand bound to EcR/USP complex [1]: significantly higher amounts
binding of labelled ligand in cells infected by the recombinant baculovirus [2]: highly-significant increase in the binding
